Consider one compound from article PMC6152329, “Antitumoural Sulphur and Selenium Heteroaryl Compounds: Thermal Characterization and Stability Evaluation” (Molecules : A Journal of Synthetic Chemistry and Natural …, 2017).

Series [1] in a line: Stability after stress conditions by HPLC/UV-DAD. Format: physicochemical. The settings on record: 0, 4 and 24 h. The protocol:
The stability of compounds VA4J (without polymorphic behaviour) and VA6E and VA7J (with polymorphic behaviour) was investigated after the application of diverse stress conditions: acid hydrolysis (HCl 1 M), basic hydrolysis (NaOH 0.1 M) and oxidation (H2O2 3%). Chromatographic studies using HPLC/UV-DAD were performed with this purpose.
Chromatographic studies were performed using an HPLC/UV-DAD (HP 1200, Agilent Technologies. Santa Clara, CA, USA) with a C18 column (Gemini-NX 150 × 4.6 mm, 5 µm) from Phenomenex (Phenomenex. Torrance, CA, USA). The mobile phase was a mixture of acetonitrile/water (80:20; v/v) for compound VA4J, (50:50; v/v) for VA6E and (80:20, 0.1% formic acid; v/v) for compound VA7J. The injection volume was 50 µL and the flow rate was 1 mL/min. Chromatography was performed at 35 °C. UV-DAD detection was established at λ = 254 nm.
For stability evaluation in stress conditions, working solutions of 47.6 µg/mL were prepared by diluting 20 µL of each standard solution in 200 µL of acetonitrile and 200 µL of (a) 1 M HCl, (b) 0.1 M NaOH and (c) 3% H2O2. Data were recorded at zero time and after 4 and 24 h of exposure.

Series [2] in a line: Thermogravimetric (TG) analysis of thermal stability. Format: physicochemical. The procedure: The thermogravimetric (TG) studies were carried out with a Perkin–Elmer TGA-7 (Perkin Elmer, Inc. Watham, MA, USA) which was calibrated with alumel and nickel at 10 °C·min^−1. The calibration of the oven temperatures was carried out automatically and mass calibrated with a certified sample of 10 mg (ASTM E617, provided by Perkin Elmer, Inc. Watham, MA, USA). TG analyses were performed under a nitrogen atmosphere with a gas flow of 40 mL·min^−1, from 50 to 350 °C, at a heating rate of 10 °C·min^−1, using a sample of approximately 3 mg, in order to obtain the values of the Tonset and Tmax of the degradation process as well as any associated mass loss.

Series [3] has as its system breast adenocarcinoma (MCF-7) cell line. Set-up: method as in PMID 27487570. The settings on record: same methodology; cited from earlier work.
A short description of series [4]: DSC successive melting-recrystallization cycles, polymorphic behaviour. The conditions noted are these: 10 °C/min. Set-up: key: I: Compounds that show a polymorphic phase transition into an amorphous or mainly amorphous solid form after a first melting–cooling scan; II: Compounds that change into a new polymorphic form with a different Tonset of fusion than the one observed at the first melting–recrystallization scan after cooling; III: These compounds show a fusion process without modifications in the thermal behaviour after an initial fusion–recrystallization cycle; IV: Compounds that show recrystallization or other types of phase transition of the original form into another crystalline one in the first heat scan; V: Compounds without fusion processes at the range of temperatures studied; *: fusion with decomposition. The format is physicochemical. The procedure:
To establish general polymorphic behaviours, samples of all the compounds synthetized (Figure 1) were exposed to successive cycles of melting–recrystallization using DSC. Calorimetric analyses were performed before the beginning of the degradation process (Table 6). […] This behaviour was shown by several compounds: VA1C, VA2E, VA8E, series H, VA6I, VA8J, VA6M and VA8M. DSC and PXRD results of compound VA7H are shown as supplementary material (Figures S1 and S2 and Table S1). • Behaviour II—Compounds that change into a new polymorphic form with a different Tonset of fusion than the one observed at the first melting–recrystallization scan after cooling. These compounds are VA7E and VA8O. DSC and PXRD results of compound VA7E are shown as supplementary material (Figures S3 and S4, Table S2). • Behaviour III—These compounds show a fusion process without modifications in the thermal behaviour after an initial fusion–recrystallization cycle. Consequently, there is no evidence of polymorphic behaviour. The compounds VA2C, VA2M, VA4J and VA5O belong to this group. DSC and PXRD results of compound VA2M are shown as supplementary material (Figures S5 and S6, Table S3). • Behaviour IV—Compounds that show recrystallization or other types of phase transition of the original form into another crystalline one in the first heat scan. In the successive cycles of melting–recrystallization, the new form may not alter its crystalline form or transit to another polymorphic form. Compounds VA6E, VA7J and VA7M show this behaviour. • Behaviour V—Compounds without fusion processes at the range of temperatures studied.
For calorimetric studies a Perkin–Elmer DSC diamond calibrated with indium and zinc (provided by Perkin–Elmer (Perkin Elmer, Inc. Watham, MA, USA) and fabricated according to guideline ISO35) at 10 °C·min^−1 and nitrogen flow of 20 mL·min^−1 was employed. The gas connected to the equipment was nitrogen with a purity of 99.999%. Calorimetric analyses were carried out in aluminium capsules for volatilities of 10 μL, at a heating rate of 10 °C·min^−1, using a sample of approximately 3 mg, in order to establish the Tonset, Tmax and the enthalpy of fusion ∆Hf.
The calorimetric analyses started with the study of the thermal behaviour of the compounds before the process of degradation in order to evidence the possible existence of polymorphism. For this preliminary study, samples of all the compounds were exposed to successive cycles of heating–cooling. All samples were heated from 50 °C to temperatures 15–20 °C below Tonset of the degradation process, in order to ensure that compounds were not degraded (Table 6). After melting the samples, they were left at room temperature for enough time to allow the compounds to recrystallize before the successive thermal process. Additional cycles of heating–cooling were performed if polymorphism was detected.

`N#CSCc1cc2c(cc1Br)OCO2` [VA6E]: the Stability to oxidation entry in series [1] (H2O2 3%) is on record as “degradation product peaks were also detected”. Moreover, the “Stability to acid hydrolysis” value in series [1] (HCl 1 M) is given as “degradation product peaks were also detected”. Moreover, the “Stability to basic (alkaline) hydrolysis” value in series [1] (NaOH 0.1 M) is “degraded almost completely”. Also, the “TG To (Tonset of thermal degradation)” value in series [2] (nitrogen, 50 to 350 °C, 10 °C/min) was 184.1 °C. Moreover, the “TG decomposition or desolvation processes in the temperature range studied” value in series [2] (range 100–135 °C for VA4J, 94–108 °C for VA6E) is given as “can be excluded”. The “Selectivity relative to MSA” value in series [3] is “fourteen times more selective than MSA”. Moreover, the “DSC Behaviour (polymorphic/calorimetric behaviour)” value in series [4] is listed as “IV”.
